Measured values from patent US20050163876A1, “Cancer treatment using natural plant products or essential oils or components from some pistacia species” (DATA MEDICA PADOVA S.p.A., priority 2003, published 2005).

Columns and labels:
LoVo cells = experiment: Pearson correlation between oil components and cytotoxic activity; parameters: species or system human; settings: P. lentiscus oils / LoVo cells
Method: The Pearson correlation and linear regression analyzes between the oil components and biological activity was also determined. To the scope all data were collected in a data base and analysed by the GraphPad Prism Version 3.0 statistical software to identify substances directly responsible of biological activity.

[1] = tested on: transplanted hamster pancreatic tumors; settings: cited from earlier work

| SMILES | Pearson correlation r between oil component and cytotoxic activity (LoVo cells) | growth of transplanted tumors relative to controls [1] |
| --- | --- | --- |
| C=C1CC[C@H]2O[C@]2(C)CC[C@@H]2[C@@H]1CC2(C)C [Caryophyllene Oxide] | 0.8355 |  |
| CC(=O)OC1CC2CCC1(C)C2(C)C (stereo not shown) [Bornyl Acetate] | 0.8693 |  |
| Cc1ccc(C(C)C)cc1 [Para cymene, Para Cymene] | −0.8621 |  |
| C=C(C)[C@@H]1CC=C(CO)CC1 [perillyl alcohol] |  | less than half that of controls |
